The values below come from paper PMC9602792, “Preclinical evaluation of the epithelial sodium channel inhibitor AZD5634 and implications on human translation” (American Journal of Physiology - Lung Cellular and …, 2022).

One data set addresses T1, hERG (Homo sapiens, UniProt Q12809).
T1 construct: Millipore & Cerep (outsourced panels)
Put plainly: Secondary pharmacology binding panel (Millipore & Cerep). The settings on record: at 10 µM. An excerpt:
As pharmacological properties regarding selectivity are crucial for the development of ENaC inhibitors, we first assessed the properties of AZD5634 through a standard battery of assessments.

The next data set concerns the target T2, rat ENaC (Rattus norvegicus, UniProt P37089+P37090+P37091).
T2 construct: from tissue; host or cells: kidney distal tubule of anesthetized female Wistar rats, in vivo
T2 sequence (P37089 1-698): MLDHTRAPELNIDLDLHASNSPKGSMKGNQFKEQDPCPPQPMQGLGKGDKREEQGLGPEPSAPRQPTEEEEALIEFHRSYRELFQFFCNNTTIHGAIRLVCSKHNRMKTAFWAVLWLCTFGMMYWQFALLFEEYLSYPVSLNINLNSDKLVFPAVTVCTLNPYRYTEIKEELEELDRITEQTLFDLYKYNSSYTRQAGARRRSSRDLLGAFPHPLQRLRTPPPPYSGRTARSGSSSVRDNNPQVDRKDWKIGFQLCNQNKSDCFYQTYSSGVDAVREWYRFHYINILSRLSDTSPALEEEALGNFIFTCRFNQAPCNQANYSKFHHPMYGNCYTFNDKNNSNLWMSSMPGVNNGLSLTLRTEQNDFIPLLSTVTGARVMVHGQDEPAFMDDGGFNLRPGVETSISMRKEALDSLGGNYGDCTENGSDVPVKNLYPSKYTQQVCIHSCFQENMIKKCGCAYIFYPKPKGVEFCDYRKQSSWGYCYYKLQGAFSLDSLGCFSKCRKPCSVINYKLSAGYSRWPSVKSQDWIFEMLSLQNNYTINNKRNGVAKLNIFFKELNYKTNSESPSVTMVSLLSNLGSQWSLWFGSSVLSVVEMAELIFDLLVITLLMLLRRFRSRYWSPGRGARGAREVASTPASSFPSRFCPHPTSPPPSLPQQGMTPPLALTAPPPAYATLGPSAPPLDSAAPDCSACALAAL
T2 sequence (P37090 1-638): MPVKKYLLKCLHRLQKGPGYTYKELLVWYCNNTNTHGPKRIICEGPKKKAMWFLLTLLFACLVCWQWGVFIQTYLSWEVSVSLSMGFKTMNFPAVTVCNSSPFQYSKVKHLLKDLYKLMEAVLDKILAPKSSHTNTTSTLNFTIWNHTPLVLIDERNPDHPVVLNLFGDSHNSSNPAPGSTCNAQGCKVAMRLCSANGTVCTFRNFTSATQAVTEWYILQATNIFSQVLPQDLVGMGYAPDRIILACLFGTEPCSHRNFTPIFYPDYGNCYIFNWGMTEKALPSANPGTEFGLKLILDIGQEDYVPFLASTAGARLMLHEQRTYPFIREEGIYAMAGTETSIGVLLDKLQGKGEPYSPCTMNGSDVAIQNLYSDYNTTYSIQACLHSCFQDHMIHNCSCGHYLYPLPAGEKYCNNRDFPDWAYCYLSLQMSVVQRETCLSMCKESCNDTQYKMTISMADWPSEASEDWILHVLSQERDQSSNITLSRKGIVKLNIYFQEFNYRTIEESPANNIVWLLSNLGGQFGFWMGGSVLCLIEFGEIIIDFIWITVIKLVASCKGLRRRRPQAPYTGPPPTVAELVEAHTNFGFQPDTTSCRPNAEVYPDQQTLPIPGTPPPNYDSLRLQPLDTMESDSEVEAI
T2 sequence (P37091 1-650): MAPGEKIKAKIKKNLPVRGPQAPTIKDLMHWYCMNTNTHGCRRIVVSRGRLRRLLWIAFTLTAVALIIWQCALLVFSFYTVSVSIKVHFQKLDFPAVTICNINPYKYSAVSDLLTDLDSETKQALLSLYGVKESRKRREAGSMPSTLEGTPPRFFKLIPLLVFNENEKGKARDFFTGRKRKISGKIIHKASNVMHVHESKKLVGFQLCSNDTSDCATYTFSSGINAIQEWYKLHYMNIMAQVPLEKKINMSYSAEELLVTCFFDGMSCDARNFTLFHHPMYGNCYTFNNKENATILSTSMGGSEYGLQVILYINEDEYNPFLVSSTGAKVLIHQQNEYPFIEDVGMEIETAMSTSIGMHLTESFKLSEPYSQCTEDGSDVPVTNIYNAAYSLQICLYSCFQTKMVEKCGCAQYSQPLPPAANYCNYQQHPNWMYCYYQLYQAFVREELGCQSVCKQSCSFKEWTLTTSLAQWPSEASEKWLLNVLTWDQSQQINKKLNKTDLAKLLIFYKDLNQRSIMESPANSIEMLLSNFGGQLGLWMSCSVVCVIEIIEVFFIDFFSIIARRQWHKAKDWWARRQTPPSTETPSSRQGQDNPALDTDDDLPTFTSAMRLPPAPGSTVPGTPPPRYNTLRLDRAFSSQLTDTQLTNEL
Put plainly: Rat potency from renal electrolyte excretion during i.v. infusion. The class given is in vivo. Conditions: read-out: potency for rat ENaC (EC50, inhibiting 50% of the potassium excretion), normal rats, free concentrations, estimated. As for the experimental part: The potency of AZD5634 was also assessed in vivo in rats. Female Wistar rats were anesthetized by means of spontaneously breathing isoflurane (induction concentration of 5% followed by 2%). A catheter was positioned in the carotid artery for blood sampling and mean arterial blood pressure and heart rate were measured. […] The urinary bladder was catheterized for urine collection. The rats were left to stabilize for at least 30 min after surgery during constant basal infusions before any test compound or vehicle infusion was initiated. Urine was collected over 20-min periods; two at baseline (i.e., preexposure), followed by three 30 min exposures of increasing doses of test compound or vehicle, where urine was collected over the last 20 min for each dose. Additional urine was collected during the washout period (0–20, 20–40, and 40–60 min after cessation of the infusion protocol). Blood samples were collected 5 min before the end of each urine collection period for electrolyte evaluation (iSTAT analyzer, Abbott Laboratories Inc) and plasma concentration of drug (LC-MSMS). Urine production, electrolytes (ABL700, Radiometer Medical ApS, Brønshøj, Denmark, for urine), as well as concentration of test compound (LC-MSMS) were evaluated.
Rat electrolyte data were analyzed by means of repeated-measures ANCOVA (SAS v.9).

T1 sequence (Q12809 whole entry): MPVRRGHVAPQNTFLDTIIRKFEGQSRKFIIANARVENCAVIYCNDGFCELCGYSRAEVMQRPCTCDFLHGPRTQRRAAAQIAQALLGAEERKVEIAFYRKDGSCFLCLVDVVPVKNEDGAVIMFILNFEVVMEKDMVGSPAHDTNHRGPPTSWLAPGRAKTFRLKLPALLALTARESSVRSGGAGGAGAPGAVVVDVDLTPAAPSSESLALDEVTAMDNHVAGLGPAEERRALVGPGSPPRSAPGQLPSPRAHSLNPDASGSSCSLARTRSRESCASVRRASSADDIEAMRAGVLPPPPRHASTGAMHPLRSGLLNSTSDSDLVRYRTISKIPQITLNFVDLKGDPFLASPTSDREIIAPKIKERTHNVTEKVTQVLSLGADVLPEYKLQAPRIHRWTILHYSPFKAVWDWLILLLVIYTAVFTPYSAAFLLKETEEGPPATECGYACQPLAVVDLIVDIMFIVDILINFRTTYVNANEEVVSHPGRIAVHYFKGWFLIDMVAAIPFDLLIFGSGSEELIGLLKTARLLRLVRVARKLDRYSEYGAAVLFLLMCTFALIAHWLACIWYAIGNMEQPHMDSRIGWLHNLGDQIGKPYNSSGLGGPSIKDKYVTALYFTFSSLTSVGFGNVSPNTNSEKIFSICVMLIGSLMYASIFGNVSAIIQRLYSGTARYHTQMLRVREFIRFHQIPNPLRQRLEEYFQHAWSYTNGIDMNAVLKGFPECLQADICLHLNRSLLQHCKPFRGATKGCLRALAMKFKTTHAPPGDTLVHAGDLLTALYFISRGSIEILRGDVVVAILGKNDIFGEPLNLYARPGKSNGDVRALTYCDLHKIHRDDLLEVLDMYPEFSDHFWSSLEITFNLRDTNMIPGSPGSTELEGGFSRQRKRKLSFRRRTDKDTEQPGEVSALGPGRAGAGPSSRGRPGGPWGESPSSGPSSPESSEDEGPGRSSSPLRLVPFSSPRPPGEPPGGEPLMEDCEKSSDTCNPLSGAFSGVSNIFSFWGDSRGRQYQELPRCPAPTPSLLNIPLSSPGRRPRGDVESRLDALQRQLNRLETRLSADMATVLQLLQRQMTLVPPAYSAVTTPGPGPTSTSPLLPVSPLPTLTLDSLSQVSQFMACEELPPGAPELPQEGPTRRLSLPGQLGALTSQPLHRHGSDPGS

AZD5634 came in with a hERG inhibition on hERG of 13%. At rat ENaC, the EC50 was 8.6 nM.
